Entries after “also recorded” stand apart in the source; their conditions may differ. Like-named read-outs stand apart in the source and are kept apart here.
How the values were obtained:
[1] = system: GPIIb/IIIa; assay: Flow cytometry of activated GPIIb/IIIa (PAC-1) on platelets; assay type: cell-based, human; settings: concentrations at which aspirin has no effect
Protocol: In order to analyze receptor expression on the surface of individual platelets and to minimize platelet activation caused by sample preparation procedures, no stirring or vortexing steps were used. The abundance of activated GPIIb/IIIa and P-selectin on the surface of platelets in the presence and absence of inhibitors was measured by flow cytometry. Platelet samples were first activated with agonists either collagen or ADP. When platelet aggregation reached 50% maximal light transmission the reaction was terminated by 10-fold dilution with physiologic saline. Resting platelets were used as control. In most of the experiments, platelets were preincubated with inhibitors for 10 min prior to the addition of agonists. Platelet samples were then incubated in the dark without stirring for 5 min at room temperature in the presence of saturating concentrations (10 μg/ml) of P-selectin (CD62P-APC). The activated GPIIb/IIIa platelet receptors were measured using PAC-1 monoclonal antibody at the same concentration as above. PAC-1 specifically recognizes an epitope on the high-affinity GPIIb/IIIa complex of activated platelets at or near the […]. Following incubation, samples were diluted in FACS Flow fluid and analyzed within 5 min using a BD FACSArray (BD Biosciences, Oxford, UK). Flow cytometry was performed on single stained platelet samples as described before^3. The instrument was set up to measure the size (forward scatter), granularity (side scatter) and cell fluorescence. A two-dimensional analysis gate of forward and side scatter was drawn in order to include single platelets and exclude platelet aggregates and microparticles. Antibody binding was measured by analyzing individual platelets for fluorescence. The mean fluorescence intensity was determined after correction for cell autofluorescence. For each sample, the fluorescence was analyzed using a logarithmic scale. Fluorescence histograms were obtained for 10,000 individual events. Data were analyzed using Cytometer RXP software and expressed as a percentage of control fluorescence in arbitrary units.

[2] = Hydrolysis in human blood; assay type: in vitro ADME
[3] = Hydrolysis in rabbit plasma; assay type: in vitro ADME
Protocol: Pooled plasma/serum solutions (4 ml) were prepared to the correct strength by dilution of plasma with phosphate buffer pH 7.4 (e.g. for a 10% solution 0.4 ml of plasma/serum was added to 3.6 ml of phosphate buffer pH 7.4). Following equilibration of the plasma/serum sample at 37±0.5° C. 100 μl of a stock solution of test compound in acetonitrile (1×10^−4 M) was added and 250 μl aliquots were removed at specified time intervals. Samples were transferred to 1.5 ml Eppendorf tubes containing 500 μl of a 2% w/v solution of nSO4.7H2O (water:acetonitrile, 1:1). Tubes were vortexed for 2 minutes, then centrifuged at 10,000 rpm for 3 minutes at room temperature. Supernatant was aspirated off and analysed by HPLC. The concentration of test compound and metabolites were determined with reference to calibration curves run on that day in the same concentration range and under the same experimental conditions. […] The metabolic fate of the esters under these conditions was also determined by RPHPLC by measuring the concentration of drug and metabolites in the medium as a function of time. […] The BuChE activity of plasma and microsomal samples was determined using the Ellman assay (Ellman et al., 1964). […]

[4] = system: MDA synthesis; assay: MDA synthesis by washed platelets; assay type: cell-based
[5] = female, human, 0.1 mM, pH 7.4
[6] = system: human platelet aggregation to arachidonic acid; assay: Human platelet aggregation to arachidonic acid in platelet rich plasma; assay type: cell-based
Protocol: Blood was collected from healthy volunteers who had not taken any drugs known to affect platelet function for at least 14 days prior to the study. Platelet rich plasma (PRP) and washed platelet suspensions (2.5×10^8 platelets/ml) were prepared from blood as previously described.
Platelet aggregation was measured by light aggregometry as previously described. Briefly, PRP and washed platelet samples (2.5×10^8/ml) were placed in a whole blood ionized calcium lumi-aggregometer (Chronolog Corp., Havertown, Pa., U.S.A), and (BIO/DATA CORPORATION) and incubated for 10 min at 37° C., with stirring at 900 r.p.m., prior to the addition of aggregating agents. Aggregation was initiated by the addition of agonists, and monitored by Aggro-Link software for at least 6 min. For experiments using inhibitors, aggregation was initiated after 10 min preincubation with these compounds

[7] = Hydrolysis in the presence of human intestinal microsomes (HIM), with or without esterase inhibitors; assay type: in vitro ADME; settings: 0.1 mM, pH 7.4
[8] = system: typical digestive proteases; assay: Stability in the presence of digestive proteases; assay type: in vitro ADME
[9] = system: TXB2 synthesis; assay: Inhibition of TXB2 synthesis in clotting whole blood (ELISA); assay type: cell-based; settings: 1 hour at 37° C., listed as ISAS
Protocol: TXA2 is highly evanescent and unsuitable for direct measurement but its metabolite TXB2 is generally believed to provide a useful index of the parent. […] The samples were then centrifuged. Serum was collected and TXB2 was measured using enzyme linked immunosorbent assay (ELISA) kits obtained from Cayman Chemicals.

CC(=O)Oc1ccccc1C(=O)O[C@H]1CO[C@H]2[C@@H]1OC[C@H]2OC(=O)c1ccccc1O [Compound 2, Isosorbide-2-aspirinate-5-salicylate]
constitutive platelet glyco-protein expression [1]: dampens constitutive platelet glyco-protein expression
half-life [2]: < 2 min
Drug disappearance ([3]; 50% Rabbit Plasma, conc drug 0.1 mM): 20 min
Drug disappearance time ([3]; rabbit, 0.1 mM, pH 7.4): 10 min
MDA synthesis by washed platelets [4]: effective
Drug disappearance [5]: 10 min
potency relative to aspirin, inhibition of arachidonic acid-induced human platelet aggregation [6]: significantly more potent than aspirin
Drug disappearance [7]: 5 min
Drug disappearance: drug left ([7]; 60 min): 9.4 μM left
stability in the presence of typical digestive proteases [8]: stable
inhibition of TXB2 (TXA2) synthesis [9]: effective in preventing the TXA2 synthesis; also recorded: significantly more potent than aspirin

Source: patent US8486974B2 (priority 2007, dated 2013)
